Experiment [1] deals with SW620/Ad300 colorectal cancer cells. Details: method as in PMID 9187269, PMID 34977876. Conditions: MDR SW620/Ad300 cells; cited from earlier work.
Experiment [2] concerns EA.hy926 endothelial hybrid cells. The note with it: positive control; ref Köhler et al.[20]; cited from earlier work.
The test system of experiment [3] is 518A2 melanoma cells. Conditions: positive control; ref Köhler et al.[20]; cited from earlier work.
Experiment [4] deals with HCT-116 p53-/- colon carcinoma cells. Conditions: positive control; ref Köhler et al.[20]; cited from earlier work.
The test system of experiment [5] is U-87 glioblastoma cells. The note with it: positive control; ref Köhler et al.[20]; read-out: IC50 U87; cited from earlier work.
Experiment [6] has as its system HT-29 colon carcinoma cells. The note with it: positive control; ref Köhler et al.[20]; cited from earlier work.
For experiment [7], the system named is HDFa adult human dermal fibroblasts. Details: method as in Köhler et al.[20]. Conditions: non-malignant cells; ref Köhler et al.[20]; cited from earlier work.
The test system of experiment [8] is tested cancer and hybrid cell lines. Put plainly: MTT assay, average over all tested cancer and hybrid cell lines. The note with it: for IC50: Homo sapiens. A general note: Tetrazolium assays rely on reduction of a dye to a coloured formazan, in cell work by metabolically active cells.
Experimental: An 3-(4, 5-dimethylthiazol-2-yl)-2, 5-diphenyl tetrazolium bromid (MTT) assay was used for antiproliferative studies. Cancer cells (5 × 10^4 cells/mL, 100 μL/well) were placed in 96-well plates (10 × 10^4 cells/mL for HDFA and U87 cells), and the cells were incubated for 24 h at 5% CO2 and 95% humidity. Then, cells were treated with test compounds (at various concentrations) or solely with DMSO as a negative control for 72 h. Then, 12.5 μL of a 0.5% MTT solution in phosphate-buffered saline (PBS) was added to the cells, followed by incubation for 2 h at 37 °C. After centrifugation of the plates (300 × g, 5 min, 4 °C), the medium was discarded, and 25 μL of DMSO containing 10% SDS and 0.6% acetic acid was added, followed by incubation at 37 °C for at least 1 h. Formazan absorbance at λ = 570 nm was measured using a Tecan infinite F200 microplate reader and corrected for the background (λ = 630 nm). The 50% inhibitory concentration (IC50) values were calculated from dose-response curves (means ± SD, four independent experiments) compared to DMSO-treated control cells, which were set to 100%. GraphPad Prism 9 was used for curve-fitting.
The selectivity index (SI) was calculated as a measure of selectivity toward cancer cells compared to non-malignant cells.
For experiment [9], the system named is HeLa cervix carcinoma cells. Details: method as in Köhler et al.[20]. Conditions: positive control; ref Köhler et al.[20]; cited from earlier work.
The subject of experiment [10] is HCT-116 colon carcinoma cells. The note with it: positive control; ref Köhler et al.[20]; cited from earlier work.
For experiment [11], the system named is KB-V1^Vbl cervix carcinoma cells. Conditions: without verapamil; ref Köhler et al.[20]; cited from earlier work.
In experiment [12] the test system is MCF-7 breast carcinoma cells. Conditions: positive control; ref Köhler et al.[20]; cited from earlier work.
Experiment [13] has as its target T1, MYB (Homo sapiens, UniProt P10242, K503R/K527R).
T1 construct: expressed in transfected cells; host or cells: HEK-293 (HEK-MYB-Luc reporter cell line)
Put plainly: Luciferase-dependent MYB activity assay (HEK-MYB-Luc reporter cells). The note with it: HEK-293 reporter cells, 16 h; read-out: IC50 inhibition of MYB activity. It is filed as cell-based. The protocol:
Compounds were tested using the HEK-MYB-Luc reporter cell line, which allows a doxycycline-dependent induction of MYB expression and harbors an MYB-dependent luciferase reporter plasmid, as previously described. After 16 h of substance treatment (0.0001-3 µM), luciferase activities were analyzed as described.

The values below come from PMC10099595, “Multimodal 4-arylchromene derivatives with microtubule-destabilizing, anti-angiogenic, and MYB-inhibitory activities” (Cancer Drug Resistance, 2023).

Read-outs that look alike come from different tables or passages of the source.

T1 sequence (P10242 whole entry K503R/K527R): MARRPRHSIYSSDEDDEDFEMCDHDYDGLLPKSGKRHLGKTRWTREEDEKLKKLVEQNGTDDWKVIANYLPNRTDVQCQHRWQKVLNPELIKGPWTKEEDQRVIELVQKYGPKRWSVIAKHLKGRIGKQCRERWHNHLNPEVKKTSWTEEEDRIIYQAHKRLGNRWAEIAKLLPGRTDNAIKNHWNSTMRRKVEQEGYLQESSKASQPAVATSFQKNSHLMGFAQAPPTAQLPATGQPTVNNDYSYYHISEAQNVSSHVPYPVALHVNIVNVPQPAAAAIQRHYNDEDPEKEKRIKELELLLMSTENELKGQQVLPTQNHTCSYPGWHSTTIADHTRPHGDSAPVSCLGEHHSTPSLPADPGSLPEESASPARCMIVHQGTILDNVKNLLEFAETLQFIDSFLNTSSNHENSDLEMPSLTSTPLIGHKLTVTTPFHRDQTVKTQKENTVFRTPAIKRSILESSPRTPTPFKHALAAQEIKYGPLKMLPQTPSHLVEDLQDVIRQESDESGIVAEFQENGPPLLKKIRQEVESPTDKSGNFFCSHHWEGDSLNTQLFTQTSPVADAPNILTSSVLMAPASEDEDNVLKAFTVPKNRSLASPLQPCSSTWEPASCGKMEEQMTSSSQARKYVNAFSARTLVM

For the compound `CC(=O)O[C@H]1C(=O)[C@@]2(C)[C@H]([C@H](OC(=O)c3ccccc3)[C@]3(O)C[C@H](OC(=O)[C@H](O)[C@@H](NC(=O)c4ccccc4)c4ccccc4)C(C)=C1C3(C)C)[C@]1(OC(C)=O)CO[C@@H]1C[C@@H]2O` [paclitaxel], in experiment [1], the “reduction of effective concentration by treatment with P-gp modulators” value is 100 fold.

As for `N#CC1=C(N)Oc2c(ccc3ccccc23)C1c1cccc([N+](=O)[O-])c1` (stereo not shown) [1A, 2-amino-4-(3-nitrophenyl)-4H-naphtho(1,2-b)pyran-3-carbonitrile], the IC50 (commonly the concentration that gives 50% inhibition) was 30 ± 1 nM in experiment [2]; 10 ± 1 nM in experiment [3]; 30 ± 3 nM in experiment [4]; 70 ± 9 nM in [5]; 30 ± 3 nM in [6]; 40700 nM in experiment [7]. Also, the IC50 was 52 nM in experiment [8] (read-out: Average IC50 value of the tested cancer and hybrid cell lines (Ø IC50), average of all cell lines of Table 2); 40 ± 2 nM in experiment [9]; 8 ± 0.7 nM in [10]; 20 ± 2 nM in [11]; 200 ± 20 nM in experiment [12]. Besides, in experiment [8] (selectivity index, HDFa vs tumor cell average), the “SI (IC50 HDFa cells/IC50 tumor cell average)” value stood at 786.

For `CC[C@]1(O)C[C@@H]2CN(CCc3c([nH]c4ccccc34)[C@@](C(=O)OC)(c3cc4c(cc3OC)N(C)[C@H]3[C@@](O)(C(=O)OC)[C@H](OC(C)=O)[C@]5(CC)C=CCN6CC[C@]43[C@@H]65)C2)C1` [vinblastine], the “reduction of effective concentration by treatment with P-gp modulators” value in experiment [1] is 351 fold.

Turning to `COc1cc(C2C(C#N)=C(N)Oc3c2ccc2ccccc32)cc(OC)c1OC` (stereo not shown) [1B], the half-inhibitory concentration (IC50) was 20 ± 1 nM in [2]; 30 ± 0.1 nM in experiment [3]; 30 ± 2 nM in experiment [4]; 5 ± 0.2 nM in experiment [5]; 300 ± 40 nM in [6]; 53 nM in experiment [8] (read-out: Average IC50 value of the tested cancer and hybrid cell lines (Ø IC50)). For the same compound, the IC50 in [13] is 9.07 nM; in experiment [9], 10 ± 1 nM; in experiment [10] it was 20 ± 1.9 nM; in experiment [11], 30 ± 1 nM; in [12] it was 34 ± 2.5 nM.
